Results: paper PMC12079500, “An Intracellular Peptide Library Screening Platform Identifies Irreversible Covalent Transcription Factor Inhibitors” (Advanced Science, 2025)
Several values for one entry are separate records, joined by “and”; a condition that tells them apart may be missing. Equal values may be shown once. Read-outs that look alike come from different tables or passages of the source. Where a SMILES comes first, the peptide text is derived from it. Bridges are numbered along the chain shown (N, C = ends). The star is where a group is joined. 5FAM = O=C1OC2(c3ccc(O)cc3Oc3cc(O)ccc32)c2ccc(C(=O)*)cc21

How the values were obtained:
SK-MEL-28 cells = experiment: Cell imaging of FAM-peptide uptake; assay type: cell-based, human; conditions: SK-MEL-28, 10 and 30 µM, 6 h, 37 °C, fixed, DAPI counterstain, fluorescence microscopy
Description: Cell imaging: Cells were seeded at 40,000 cells per well in a […] and incubated for 24 hours before treatment with vehicle (1% DMSO in water) or peptide for 6 hours. The media was removed and the cells were washed 3x with PBS. 1 mL of paraformaldehyde (80 mg/mL in PBS) was added and incubated at room temperature for 10 minutes. The paraformaldehyde was removed and fixed cells were washed with 3x PBS. 500 µL of DAPI (1 µg/mL) was then added and incubated at room temperature for 5 minutes following by a 3x PBS wash. Cells were imaged using an Evos FL digital inverted fluorescence microscope using brightfield and both GFP (for the FAM label) and DAPI fluorescence filters.

cJun [1] = target: T1, cJun (Homo sapiens, UniProt P05412); experiment: CD thermal denaturation of antagonist-cJun heterodimer; assay type: binding; parameters: LC-MS analysis of the cJun bZIP domain; made in house; conditions: for Antagonist-cJun heterodimer Tm, reduced / Antagonist-cJun heterodimer Tm, oxidised: CD at 222 nm, 1-95 °C, 20 mM potassium phosphate, 150 mM KF; for Antagonist-cJun heterodimer Tm, reduced: pH 7.4, with 5 mM TCEP (reducing); for Antagonist-cJun heterodimer Tm, oxidised: pH 7.4, without TCEP (oxidising), HW31 50 µM + cJun 50 µM; for Antagonist-cJun heterodimer Tm, Δox-red: difference of Tm in oxidising and reducing buffer
Description: (§1) Circular dichroism (CD): An Applied Photophysics Chirascan was used for CD measurements, with a 200 µL sample in a 1 mm path length CD cell. Protein/DNA samples were suspended in 20 mM potassium phosphate,150 mM potassium fluoride at pH 7.4 with or without 5 mM TCEP. cJun was added to TRE DNA (5’-[…], Merck) before addition of antagonist peptide and these samples were equilibrated for 30 minutes before measurement.^[13] For full spectra, three scans between 190 and 260 nm (265-320 nm for DNA binding experiments) were collected with a bandwidth of 1 nm and data sampled at a rate of 0.5 s^-1. These scans were averaged and converted to molar residue ellipticities (MRE). Thermal denaturation experiments were performed by measuring the ellipticity at 222 nm over a 1 to 95°C gradient at 1°C increments. Post-melt scans at 20°C confirmed the transitions were reversible as they overlaid within 5% of the pre-melt scan. The resulting thermal denaturation curves were converted to MRE and fitted to a two-state model, derived via modification of the Gibbs–Helmholtz equation to determine the melting temperature (Tm) ^[26].

cJun/TRE DNA = target: T2, cJun/TRE DNA (Homo sapiens, UniProt P05412); experiment: CD cJun/TRE DNA antagonism assay (TRE DNA signal at 281 nm); assay type: biochemical; conditions: for cJun-TRE DNA IC50, fold improved (oxidised vs reduced): ratio of IC50 reduced / oxidised; for IC50: pH 7.4, 30 min equilibration, triplicate data, Hill fit, error one SD
T2 construct: LC-MS analysis of the cJun bZIP domain; made in house
Excerpt: CD antagonism experiments were next carried out, as previously described,^[ [13], [18] ^] whereby the structure of a TRE DNA duplex was monitored by following a peak at 281 nm, which shifts upon binding to cJun. The introduction of antagonist to the sample causes the peak to shift back to its unbound signal in a dose‐dependent manner as the cJun is sequestered, leaving unbound DNA in its original structure (Figure S9, Supporting Information). As there is no protein absorbance in this region of the CD spectrum, this measures DNA structure only and produces a simple readout of the proportion of free/cJun‐bound DNA at different antagonist concentrations. By fitting these plots to a Hill equation (OriginPro), IC50 values for HW1, HW29, and HW31 were determined in both reducing and oxidizing conditions (Table S1, Supporting Information; Figure 3C).
as §1

cJun [2] = conditions: cited from earlier work
Excerpt: We previously developed cJun peptide antagonists using a Transcription Block Survival (TBS) assay (Figure 1B).^[ [13] ^] This intracellular peptide library screening platform moves beyond conventional peptide screening systems by selecting peptides based on their ability to not only bind to the target but to meet the more demanding task of functionally antagonizing it by i) binding and, more importantly, ii) blocking its ability to form protein‐DNA interactions.

cJun [3] = target: T1, cJun; experiment: CD spectra (helicity) of HW31-cJun mixture; assay type: binding; parameters: LC-MS analysis of the cJun bZIP domain; made in house; conditions: oxidised vs reduced buffer
Description: as §1

cJun [4] = target: T1, cJun; experiment: ESI-MS of HW31 + cJun mixture; assay type: binding; parameters: LC-MS analysis of the cJun bZIP domain; made in house; conditions: HW31 50 µM + cJun 50 µM, oxidising conditions; reduced back by TCEP
Description: A mixture of HW31 (50 µM) and cJun (50 µM, Figure S4, Supporting Information) was first shown to form a disulphide‐bridged complex by ESI‐MS, which could be reduced back to the separate species by the addition of TCEP (Figure S5, Supporting Information). Further, an Alphafold 3 prediction of HW31 (prediction without lactam bridge) bound to cJun indicates the complex forms the predicted coiled coil interaction with the formation of a disulphide between cJun C269 and HW31 C2 (Figure 3A; Figure S6, Supporting Information).^[ [17] ^] The interaction was next characterized using circular dichroism (CD) experiments in both oxidizing and reducing conditions. The mixing of HW31 and cJun in both conditions provided a clear increase in helicity, indicative of a binding interaction (Figure S7, Supporting Information). The measured HW31‐cJun heterodimer complex was ≈10% more helical in the oxidized buffer relative to the reduced. […] Analytical size exclusion chromatography further validated HW31/cJun binding and confirmed the formation of a 1:1 stoichiometric complex (Figure S8, Supporting Information).

[5] = oxidising buffer (no TCEP), read-out: cJun-TRE DNA IC50, oxidised
[6] = reducing buffer (5 mM TCEP), read-out: cJun-TRE DNA IC50, reduced

T2 sequence (P05412 252-315 limits assumed): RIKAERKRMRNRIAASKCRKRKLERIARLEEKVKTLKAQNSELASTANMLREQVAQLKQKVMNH
T1 sequence (P05412 252-315 limits assumed): as above

| Compound | Cellular uptake (FAM fluorescence within cells) (SK-MEL-28 cells) | Antagonist-cJun heterodimer Tm, reduced (cJun [1]) | Antagonist-cJun heterodimer Tm, oxidised (cJun [1]) | Antagonist-cJun heterodimer Tm, Δox-red (cJun [1]) | cJun-TRE DNA IC50, fold improved (oxidised vs reduced) (cJun/TRE DNA) | Kd (cJun [2]; read-out: Previously determined affinity for cJun) [µM] | IC50 (cJun/TRE DNA; [5]) [µM] | IC50 (cJun/TRE DNA; [6]) [µM] | Increase in helicity of the HW31-cJun heterodimer complex in oxidized buffer relative to reduced (cJun [3]) | Disulphide formation with cJun (cJun [4]) | Kd (cJun [2]; read-out: Affinity for cJun) [µM] |
| --- | --- | --- | --- | --- | --- | --- | --- | --- | --- | --- | --- |
| CC(C)[C@H](NC(=O)[C@H](CCCCN)NC(=O)[C@H](CCCNC(=N)N)NC(=O)[C@H](CCCCN)NC(=O)[C@H](CCCCN)NC(=O)[C@H](CCCCN)NC(=O)[C@@H]1CCCN1C(=O)c1ccc2c(c1)C(=O)OC21c2ccc(O)cc2Oc2cc(O)ccc21)C(=O)N[C@@H](Cc1ccc(O)cc1)C(=O)NCC(=O)N[C@@H](CCCNC(=N)N)C(=O)N[C@@H](CCCCN)C(=O)N[C@@H](CCCCN)C(=O)N[C@@H](CCCNC(=N)N)C(=O)N[C@@H](CCCNC(=N)N)C(=O)N[C@@H](CCC(N)=O)C(=O)N[C@@H](CCCNC(=N)N)C(=O)N[C@@H](CCCNC(=N)N)C(=O)N[C@@H](CCCNC(=N)N)C(N)=O [FAM-NLSTAT, reference compound] (5FAM-PKKKRKVYGRKKRRQRRR-NH2) | FAM fluorescence was observed within the cells |  |  |  |  |  |  |  |  |  |  |
| CC[C@H](C)[C@H](NC(=O)[C@H](CCC(=O)O)NC(=O)[C@H](CCCCN)NC(=O)[C@H](CCCNC(=N)N)NC(=O)[C@H](CC(C)C)NC(=O)[C@H](C)NC(=O)[C@H](Cc1ccc(O)cc1)NC(=O)[C@H](CC(N)=O)NC(=O)[C@H](CCCNC(=N)N)NC(=O)[C@H](CCC(=O)O)NC(=O)[C@H](CCC(=O)O)NC(=O)[C@H](CC(C)C)NC(=O)[C@H](CCC(N)=O)NC(=O)[C@H](CCC(=O)O)NC(=O)[C@@H](NC(=O)[C@H](CCC(=O)O)NC(=O)[C@H](CCC(=O)O)NC(=O)[C@H](CCC(=O)O)NC(=O)[C@H](CC(C)C)NC(=O)[C@@H](NC(=O)[C@H](CC(=O)O)NC(=O)[C@H](CCC(=O)O)NC(=O)[C@H](CCC(=O)O)NC(=O)[C@@H](NC(=O)[C@@H](NC(=O)[C@H](CC(C)C)NC(=O)[C@H](CCC(=O)O)NC(=O)[C@H](CCC(=O)O)NC(=O)[C@H](C)NC(=O)[C@H](CCC(=O)O)NC(C)=O)C(C)C)C(C)C)C(C)C)[C@@H](C)CC)C(=O)N[C@H]1CCCCNC(=O)C[C@@H](C(=O)N[C@@H](CCC(N)=O)C(N)=O)NC(=O)[C@H](CCC(N)=O)NC(=O)[C@H](CC(C)C)NC(=O)[C@H](CC(=O)O)NC1=O [HW29, reference compound] (Ac-EAEELVVEEDVLEEEIEQLEERNYALRKEIKDLQDQ-NH2; lactam 31-35) |  | 68 °C | 66 °C | -2 °C | 1 | 0.087 ± 0.017 |  |  |  |  |  |
| CC[C@H](C)[C@H](NC(=O)[C@H](CCC(=O)O)NC(=O)[C@H](CCCCN)NC(=O)[C@H](CCCNC(=N)N)NC(=O)[C@H](CC(C)C)NC(=O)[C@H](C)NC(=O)[C@H](Cc1ccc(O)cc1)NC(=O)[C@H](CC(N)=O)NC(=O)[C@H](CCCNC(=N)N)NC(=O)[C@H](CCC(=O)O)NC(=O)[C@H](CCC(=O)O)NC(=O)[C@H](CC(C)C)NC(=O)[C@H](CCC(N)=O)NC(=O)[C@H](CCC(=O)O)NC(=O)[C@@H](NC(=O)[C@H](CCC(=O)O)NC(=O)[C@H](CCC(=O)O)NC(=O)[C@H](CCC(=O)O)NC(=O)[C@H](CC(C)C)NC(=O)[C@@H](NC(=O)[C@H](CC(=O)O)NC(=O)[C@H](CCC(=O)O)NC(=O)[C@H](CCC(=O)O)NC(=O)[C@@H](NC(=O)[C@@H](NC(=O)[C@H](CC(C)C)NC(=O)[C@H](CCC(=O)O)NC(=O)[C@H](CCC(=O)O)NC(=O)[C@H](CS)NC(=O)[C@H](CCC(=O)O)NC(C)=O)C(C)C)C(C)C)C(C)C)[C@@H](C)CC)C(=O)N[C@H]1CCCCNC(=O)C[C@@H](C(=O)N[C@@H](CCC(N)=O)C(N)=O)NC(=O)[C@H](CCC(N)=O)NC(=O)[C@H](CC(C)C)NC(=O)[C@H](CC(=O)O)NC1=O [HW31] (Ac-ECEELVVEEDVLEEEIEQLEERNYALRKEIKDLQDQ-NH2; lactam 31-35) |  | 66.6 °C and 67 °C | 81.2 °C and 81 °C | 14.6 °C and 14 °C | 4 |  | 12.1 ± 0.3 | 48.3 ± 1.8 | ≈ 10% | covalent attachment via a disulphide |  |
| Ac-LEQRAEELARENEELEKEAEELVVEEDVLEEEIEQLEERNYALRKEIEDLQKQLEKL-NH2 [HW1, reference compound] |  | 73 °C | 70 °C | -3 °C | 1 |  | 11.8 ± 0.3 | 13.8 ± 0.3 |  |  | 0.00021 |
